According to patent publication US8501955B2, “Acetamide derivatives as glucokinase activators, their process and medicinal application” (Advinus Therapeutics Private Limited, priority 2007, dated 2013):

How the values were obtained:
[1] = biological target: T1, purified human recombinant GK (Homo sapiens, UniProt P35557); test: Glucokinase activity assay (coupled enzymatic GK/G6PD assay, NADH absorbance at 340 nm); format: biochemical; details: for EC50: EC50 of % change in S0.5 of glucokinase for glucose, sigmoidal fit, read-out: EC50 (with respect to % ΔS0.5); for Emax: Emax of % change in S0.5, vehicle S0.5 = 0%, 0 mM glucose = 100%, read-out: % Emax (with respect to % ΔS0.5)
T1 sequence (P35557 1-465): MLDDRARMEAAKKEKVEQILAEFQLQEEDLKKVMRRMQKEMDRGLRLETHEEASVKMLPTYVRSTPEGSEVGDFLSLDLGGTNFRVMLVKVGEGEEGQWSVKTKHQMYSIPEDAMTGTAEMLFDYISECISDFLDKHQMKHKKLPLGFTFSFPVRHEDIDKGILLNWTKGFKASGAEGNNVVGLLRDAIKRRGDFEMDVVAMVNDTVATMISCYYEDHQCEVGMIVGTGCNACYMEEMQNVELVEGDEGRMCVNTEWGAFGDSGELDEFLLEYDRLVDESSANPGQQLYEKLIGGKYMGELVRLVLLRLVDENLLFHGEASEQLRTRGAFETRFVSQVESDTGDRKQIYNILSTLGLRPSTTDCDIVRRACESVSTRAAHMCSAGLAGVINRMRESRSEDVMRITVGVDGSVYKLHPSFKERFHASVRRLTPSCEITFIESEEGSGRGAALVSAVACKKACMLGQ
Text: The glucokinase (GK) assay is a coupled enzymatic assay. GK catalyzes the first step of glycolysis, the conversion of glucose to glucose-6-phosphate (G6P) in the presence of ATP. G6P in turn is converted by glucose-6-phosphate dehydrogenase (G6PD) to 6-phosphogluconate, a process that requires NAD, resulting in NADH formation. Since the GK-catalyzed step is the rate-limiting step of this coupled enzymatic process, the rate of accumulation of 6-phosphogluconate and NADH is directly proportional to the rate of glucose phosphorylation by GK. The rate of the GK-catalyzed reaction can therefore be measured by monitoring the increase in NADH absorbance at 340 nm.
The assay is carried out according to the protocol outlined in Hariharan et al (1997), Diabetes 46: 11-16. Briefly, the test compounds are incubated in a reaction mix containing 25 mM HEPES (pH 7.2), 10 mM MgCl2, 100 mM KCl, 5 mM ATP, 2 mM DTT, 0.5 mM NAD, 1 U/ml Leuconostoc mesenteroides G6PD, 0.3 U/ml of purified human recombinant GK, and different concentrations of glucose. Enzymatic activity is calculated from the initial reaction velocity, measured from the change in NADH absorbance as a function of time.
Compounds described in formula (I), in concentration ranges from 1.0 nM to […] are tested in the purified human recombinant glucokinase assay described above.
A compound is considered to be a glucokinase activator if it, in its testable range of concentrations, yields a higher rate of glucose phosphorylation than in its absence at a particular glucose concentration, for example at 5 mM glucose.
Compounds of general formula (I) are tested in the in vitro GK enzymatic assay to monitor dose-dependent effect on glucokinase activation (in kinetic mode), as described above, at various glucose concentrations. The S0.5 of glucokinase for glucose at different concentration of each compound of interest is calculated from the following modified version of the Michaelis-Menten equation, V=Vmax[S]^n/(S0.5^n+[S]^n), where [S] is the glucose concentration and n is the Hill coefficient (taken as 1.7 to account for the sigmoidal kinetics of glucokinase with respect to glucose). The S0.5 is plotted against the log of the compound concentration. The change in the S0.5 of glucokinase (ΔS0.5) for glucose is calculated by subtracting the S0.5 at each concentration of the compound from the S0.5 in the vehicle control. The ΔS0.5 is then normalized to a percent scale, where the S0.5 in the vehicle control is set to 0% and 0 mM glucose is set to 100%. The % ΔS0.5 is then plotted against the log of the compound concentration. The EC50 and Emax of % change in S0.5 is obtained from the sigmoidal fit of the data. Detailed protocol has been described in our copending application no. WO 2008/104994 which is incorporated herein by reference. Characterization data of some representative glucokinase activators of the present disclosure, which are illustrative but not limiting, are given in table 1 below.

primary rat hepatocytes = test: Measurement of glycogen synthesis in primary rat hepatocytes; format: cell-based; details: Rattus norvegicus, Hepatocyte, 3 h, 10 μM compound, 10 mM glucose, fold increase over DMSO control
Method: Primary hepatocytes are collected from male Wistar rats, and tested for viability by trypan blue exclusion. Primary hepatocytes cultures with viability greater than 95% are selected for the glycogen synthesis assay. The cells are seeded in a 48-well plate at a density of 200,000 cells/well in 250 μl Minimal Essential Medium (MEM) containing 10% foetal calf serum (FCS) and 1.7 μM insulin, and incubated for 4 hours at 37° C. to allow attachment. The medium is replaced with fresh MEM containing 10% FCS, 1.7 μM insulin and 10 nM dexamethasone, and the cells are incubated for 16 hours at 37° C. The medium is then replaced with fresh MEM (serum-free) containing 2 μCi/ml of D-[U^14C]-Glucose along with 10 μM of the compound in a final DMSO concentration of 0.1%. The final glucose concentration is brought to 10 mM by the addition of D-Glucose (MEM already contains 5 mM glucose). The cells are incubated for 3 hours at 37° C. The cells are washed twice with 150 mM NaCl, lysed with 0.1 N NaOH, and the lysate precipitated with 8% w/v trichloroacetic acid (TCA) and 1 mg/well unlabeled glycogen as carrier. Cell debris is pelleted by centrifugation, the supernatant is removed, and the glycogen is precipitated with 63% ethanol. After another round of centrifugation, the supernatant is removed, and the pellet containing the precipitated glycogen is dried overnight. De novo synthesized glycogen is estimated in a scintillation counter (MicroBeta Trilux, Perkin Elmer), and expressed as fold increase over DMSO control.
The protocol for the glycogen assay is based on the method described in “Biochem J. 1990 Feb. 15; 266(1): 91-102” with a few minor modifications. The protocol for isolation of primary rat hepatocytes is based on the method described in “Methods in Enzymology, Vol. III. pp 34-50. Ed. by S. P. Colowick and N. O. Kaplan. New York, Academic Press, 1957” with a few minor modifications.
Compounds described in formula (I), in concentration ranges from 1.0 nM to 500 μM, are tested in glycogen synthesis assay described above.

| SMILES | EC50 [1] | Emax [1] | fold induction at 10 µM (primary rat hepatocytes) |
| --- | --- | --- | --- |
| O=C(Nc1nncs1)C(Oc1ccc(F)cc1F)c1ccc(S(=O)(=O)C2CCCC2)cc1 (stereo not drawn) [Example A27, 2-(4-Cyclopentanesulfonylphenyl)-2-(2,4-difluorophenoxy)-N-[1,3,4]thiadiazol-2-yl-acetamide] | 1270 nM | 90% | – |
| O=C(O)c1ccc(Oc2cnc(NC(=O)C(OC3CCOCC3)c3ccc(S(=O)(=O)C4CC4)cc3)s2)c(F)c1 (stereo not drawn) [Example B94, 4-{2-[2-(4-Cyclopropanesulfonyl-phenyl)-2-(tetrahydro-pyran-4-yloxy)-acetylamino]-thiazol-5-yloxy}-3-fluoro-benzoic acid] | – | – | 8.7 |
| O=C(Nc1ncc(F)s1)C(Oc1ccc(F)cc1F)c1ccc(S(=O)(=O)C2CCCC2)cc1 (stereo not drawn) [Example A11, 2-(4-Cyclopentanesulfonylphenyl)-2-(2,4-difluorophenoxy)-N-(5-fluoro-thiazol-2-yl)acetamide] | 110 nM | 95% | – |
| CCOc1sc(NC(=O)C(Oc2ccc(F)cc2F)c2ccc(S(=O)(=O)C3CC3)cc2)nc1CC(=O)O (stereo not drawn) [Example B22, {2-[2-(4-Cyclopropanesulfonylphenyl)-2-(2,4-difluorophenoxy)acetylamino]-5-ethoxy-thiazol-4-yl}acetic acid] | > 10000 nM | – | – |
| O=C(O)Cc1nc(NC(=O)C(Oc2ccc(F)cc2F)c2ccc(S(=O)(=O)C3CCCCC3)cc2)sc1Cl (stereo not drawn) [Example B15, {5-Chloro-2-[2-(4-cyclohexanesulfonylphenyl)-2-(2,4-difluorophenoxy)acetylamino]-thiazol-4-yl}acetic acid] | 670 nM | 95% | – |
| O=C(Nc1nccs1)C(Oc1ccc(Cl)cc1)c1ccc(S(=O)(=O)C2CCCC2)cc1 (stereo not drawn) [Example A12, 2-(4-Chlorophenoxy)-2-(4-cyclopentanesulfonylphenyl)-N-thiazol-2-yl-acetamide] | 170 nM | 90% | – |
| O=C(O)c1ccc(Oc2cnc(NC(=O)C(Oc3ccc(F)cc3F)c3ccc(S(=O)(=O)N4CCCCC4)cc3)s2)cc1 (stereo not drawn) [Example B50, 4-(2-{2-(2,4-Difluoro-phenoxy)-2-[4-(piperidine-1-sulfonyl)-phenyl]-acetylamino}-thiazol-5-yloxy)-benzoic acid] | 280 nM | 90% | – |
| O=C(O)Cc1ccc(Oc2cnc(NC(=O)C(OC3CCOCC3)c3ccc(S(=O)(=O)C4CC4)cc3)s2)cc1 (stereo not drawn) [Example B100, (4-{2-[2-(4-Cyclopropanesulfonyl-phenyl)-2-(tetrahydro-pyran-4-yloxy)-acetylamino]-thiazol-5-yloxy}-phenyl)-acetic acid] | 220 nM | 91% | – |
| O=C(Nc1cc[nH]n1)C(Oc1ccc(Cl)cc1F)c1ccc(S(=O)(=O)C2CC2)cc1 (stereo not drawn) [Example A45, 2-(4-Chloro-2-fluorophenoxy)-2-(4-cyclopropanesulfonylphenyl)-N-(1H-pyrazol-3-yl)acetamide] | 1300 nM | 90% | – |
| N#Cc1ccc(Oc2cnc(NC(=O)C(OC3CCOCC3)c3ccc(S(=O)(=O)C4CC4)cc3)s2)cc1 (stereo not drawn) [Example A117, N-[5-(4-Cyano-phenoxy)-thiazol-2-yl]-2-(4-cyclopropanesulfonyl-phenyl)-2-(tetrahydro-pyran-4-yloxy)-acetamide] | 150 nM | 92% | – |
| O=C(Nc1cc[nH]n1)C(Oc1ccc(F)cc1F)c1ccc(S(=O)(=O)C2CCCC2)c(Cl)c1 (stereo not drawn) [Example A37, 2-(3-Chloro-4-cyclopentanesulfonylphenyl)-2-(2,4-difluorophenoxy)-N-(1H-pyrazol-3-yl)acetamide] | 2000 nM | 90% | – |
| Cc1cnc(NC(=O)C(Oc2ccc(Cl)cc2F)c2ccc(S(=O)(=O)C3CC3)cc2)s1 (stereo not drawn) [Example A43, 2-(4-Chloro-2-fluorophenoxy)-2-(4-cyclopropanesulfonylphenyl)-N-(5-methylthiazol-2-yl)acetamide] | 150 nM | 95% | – |
| Cn1ccc(NC(=O)C(Oc2ccc(F)cc2F)c2ccc(S(=O)(=O)C3CCCC3)cc2)n1 (stereo not drawn) [Example A38, 2-(4-Cyclopentanesulfonylphenyl)-2-(2,4-difluorophenoxy)-N-(1-methyl-1H-pyrazol-3-yl)acetamide] | 390 nM | 95% | – |
| O=C(Nc1ncc(F)s1)C(Oc1ccc(Cl)cc1F)c1ccc(S(=O)(=O)C2CC2)cc1 (stereo not drawn) [Example A42, 2-(4-Chloro-2-fluorophenoxy)-2-(4-cyclopropanesulfonylphenyl)-N-(5-fluorothiazol-2-yl)acetamide] | 120 nM | 95% | – |
| O=C(Nc1nncs1)C(Oc1ccc(F)cc1F)c1ccc(S(=O)(=O)C2CC2)cc1 (stereo not drawn) [Example A16, 2-(4-Cyclopropanesulfonylphenyl)-2-(2,4-difluorophenoxy)-N-[1,3,4]thiadiazol-2-yl-acetamide] | 7100 nM | 90% | – |
| O=C(Nc1ccc(Cl)cn1)C(Oc1ccc(Cl)cc1F)c1ccc(S(=O)(=O)C2CC2)cc1 (stereo not drawn) [Example A41, 2-(4-Chloro-2-fluorophenoxy)-N-(5-chloropyridin-2-yl)-2-(4-cyclopropanesulfonylphenyl)-acetamide] | 460 nM | 90% | – |
| O=C(O)Cc1nc(NC(=O)C(Oc2ccc(F)cc2F)c2ccc(S(=O)(=O)N3CCCCC3)cc2)sc1Cl (single isomer, unassigned; (-)) [Example H3A, (−) (5-Chloro-2-{2-(2,4-difluoro-phenoxy)-2-[4-(piperidine-1-sulfonyl)-phenyl]-acetylamino}-thiazol-4-yl)-acetic acid] | 430 nM | 90% | – |
| O=C(O)c1csc(NC(=O)C(Oc2ccc(Cl)cc2F)c2ccc(S(=O)(=O)C3CC3)cc2)n1 (stereo not drawn) [Example B26, 2-[2-(4-Chloro-2-fluorophenoxy)-2-(4-cyclopropanesulfonylphenyl)acetylamino]thiazole-4-carboxylic acid] | > 10000 nM | – | – |
